Test results reported in US20250129430A1, “HIGH ATP-AFFINITY PROTEIN AS THERAPEUTIC TARGET FOR INTRACTABLE CANCER MOLECULAR SUBTYPES AND INHIBITOR THEREOF” (VeraVerse Co., Ltd., priority 2021, published 2025).

Key:
Type in all cases: cell-based, human
[1] = tested on: AGS; assay: Cell viability drug screen, 12-point dose-response AUC; conditions: AGS cells; 72 hours; 12-point dose-response
How it was run: (§1)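 Each cell line receives a twelve-point half-log titration of drug beginning 24 h after plating 5×10^3 cells per well. Following 72 h culture at 37 °C, luminescent signal is recorded and expressed versus vehicle. AUC is derived by the trapezoidal method.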

[2] = tested on: Hs746T; assay: as above; conditions: Hs746T cells; 72 hours; 12-point dose-response
How it was run: (§2)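 Luminescent viability readings, taken 15 min after reagent addition at room temperature, were normalized to the 0.5% DMSO control to build 12-point dose-response curves. Trapezoidal integration gave the AUC. Cells had been plated at 5×10^3 per well and then exposed to half-log dilutions for 72 h.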

[3] = tested on: KATO3; assay: as above; conditions: KATO3 cells; 72 hours; 12-point dose-response
How it was run: as §2

[4] = tested on: MKN1; assay: as above; conditions: MKN1 cells; 72 hours; 12-point dose-response
How it was run: as §2

[5] = tested on: MKN28; assay: as above; conditions: MKN28 cells; 72 hours; 12-point dose-response
How it was run: as §2

[6] = tested on: MKN45; assay: as above; conditions: MKN45 cells; 72 hours; 12-point dose-response
How it was run: as §1

[7] = tested on: MKN74; assay: as above; conditions: MKN74 cells; 72 hours; 12-point dose-response
How it was run: as §1

[8] = tested on: NCC19; assay: as above; conditions: NCC19 cells; 72 hours; 12-point dose-response
How it was run: as §2

[9] = tested on: NCC20; assay: as above; conditions: NCC20 cells; 72 hours; 12-point dose-response
How it was run: as §2

[10] = tested on: NCC24; assay: as above; conditions: NCC24 cells; 72 hours; 12-point dose-response
How it was run: as §2

[11] = tested on: NCC59; assay: as above; conditions: NCC59 cells; 72 hours; 12-point dose-response
How it was run: as §2

[12] = tested on: NCI_N87; assay: as above; conditions: NCI_N87 cells; 72 hours; 12-point dose-response
How it was run: as §2

[13] = tested on: OCUM1; assay: as above; conditions: OCUM1 cells; 72 hours; 12-point dose-response
How it was run: as §2

[14] = tested on: SK4; assay: as above; conditions: SK4 cells; 72 hours; 12-point dose-response
How it was run: as §2

[15] = tested on: SNU16; assay: as above; conditions: SNU16 cells; 72 hours; 12-point dose-response
How it was run: as §2

[16] = tested on: SNU1750; assay: as above; conditions: SNU1750 cells; 72 hours; 12-point dose-response
How it was run: as §2

[17] = tested on: SNU1967; assay: as above; conditions: SNU1967 cells; 72 hours; 12-point dose-response
How it was run: as §2

[18] = tested on: SNU1; assay: as above; conditions: SNU1 cells; 72 hours; 12-point dose-response
How it was run: as §2

[19] = tested on: SNU216; assay: as above; conditions: SNU216 cells; 72 hours; 12-point dose-response
How it was run: as §1

[20] = tested on: SNU484; assay: as above; conditions: SNU484 cells; 72 hours; 12-point dose-response
How it was run: as §2

[21] = tested on: SNU601; assay: as above; conditions: SNU601 cells; 72 hours; 12-point dose-response
How it was run: as §2

[22] = tested on: SNU620; assay: as above; conditions: SNU620 cells; 72 hours; 12-point dose-response
How it was run: as §2

[23] = tested on: SNU638; assay: as above; conditions: SNU638 cells; 72 hours; 12-point dose-response
How it was run: as §2

[24] = tested on: SNU668; assay: as above; conditions: SNU668 cells; 72 hours; 12-point dose-response
How it was run: as §2

[25] = tested on: SNU719; assay: as above; conditions: SNU719 cells; 72 hours; 12-point dose-response
How it was run: as §1

[26] = tested on: YCC11; assay: as above; conditions: YCC11 cells; 72 hours; 12-point dose-response
How it was run: as §2

[27] = tested on: YCC2; assay: as above; conditions: YCC2 cells; 72 hours; 12-point dose-response
How it was run: as §2

[28] = tested on: YCC3; assay: as above; conditions: YCC3 cells; 72 hours; 12-point dose-response
How it was run: as §2

[29] = tested on: FU97; assay: as above; conditions: FU97 cells; 72 hours; 12-point dose-response
How it was run: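 Trapezoidal AUC of a 12-point, DMSO-normalized dose-response curve. Luminescent viability was measured after 72 h of exposure at 37° C to half-log serial dilutions (0.5% DMSO control), dosed 24 h after plating FU97 cells at 5×10^3 per well.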

[30] = tested on: SEM-type gastric cancer cell line; assay: Cell viability drug screen, AUC summary over SEM-type lines
Protocol: An FDA-approved small-molecule pharmacological compound (#L1300) and an anticancer compound for research (#L2000) were purchased from Selecckchem and a 10 mM solution was prepared in DMSO. A total of 1,345 compounds were tested the cell viability of the seven EMT gastric cancer cell lines.
Cells cultured for cell-based drug assay were inoculated into a 96-well white optical plate (Corning) at 5×10^3 cells per well. After 24 hours after inoculation, a 2.5 MJT (primary screen) or a half-log 12-serial diluent (secondary screen) of the pharmacological compound contained in DMSO is added to the cells with a robot using a BioMek FXp liquid processor (Beckman) to add to the cells at 50 mM. The final drug concentration in the 5 ns range and the DMSO specification control (0.5%) were calculated. The cells were then further incubated at 37° C. in a 5% CO2 incubator for 72 hours prior to measuring cell viability using the extra-GLO assay kit (Promega). The luminescent properties were measured after 15 min incubation at room temperature using a plate stacker equipped with a plate stacker. The normalized viability for the DMSO-based control was measured to generate a cell line-specific 12-point dose-response curve for each pharmacological compound, and then the area under the curve (AUC) was calculated using a trapezoidal method.

[31] = tested on: non-SEM-type gastric cancer cell line; assay: Cell viability drug screen, AUC summary over non-SEM-type lines; conditions: in the non-SEM-type gastric cancer cell line

For `COc1ncc(-c2ccc3nccc(-c4ccnnc4)c3c2)cc1NS(=O)(=O)c1ccc(F)cc1F` [GSK2126458], the “area under the viability curve (AUC), normalized” value (shortened to “area … normalized”) [1] was −2.286, the “area … normalized” value [2] was −0.063 and the “area … normalized” value [3] was 3.911. The “area … normalized” value [4] was −1.1278, the “area … normalized” value [5] was 0.15 and the “area … normalized” value [6] was 0.05353. The “area … normalized” value [7] was 0, the “area … normalized” value [8] was 0.4665 and the “area … normalized” value [9] was −1.107. The “area … normalized” value [10] was −1.197, the “area … normalized” value [11] was 2.2975 and the “area … normalized” value [12] was −1.3463. The “area … normalized” value [13] was 1.227, the “area … normalized” value [14] was −2.466 and the “area … normalized” value [15] was 0.6494. For the same molecule, the “area … normalized” value [16] was −0.5071, the “area … normalized” value [17] was 1.044 and the “area … normalized” value [18] was −0.6492. The “area … normalized” value [19] was −0.4775, the “area … normalized” value [20] was 0.4641 and the “area … normalized” value [21] was 0.1047. For the same molecule, the “area … normalized” value [22] was −0.7945, the “area … normalized” value [23] was 0.9531 and the “area … normalized” value [24] was 1.587. For the same molecule, the “area … normalized” value [25] was 5.211, the “area … normalized” value [26] was −1.373 and the “area … normalized” value [27] was −0.9259. The “area … normalized” value [28] was 0.9745, the “area … normalized” value [29] was −1.393 and the “normalized viability AUC” value [30] was “negative”. The AUC value [31] was “high”.

In the case of `COCCn1c2c([n+](Cc3cnccn3)c1C)C(=O)c1ccccc1C2=O` [YM155], the “area … normalized” value [1] was −1.512, the “area … normalized” value [2] was −1.376 and the “area … normalized” value [3] was −0.3081. The “area … normalized” value [4] was −2.0115, the “area … normalized” value [5] was −1.021 and the “area … normalized” value [6] was 0.6792. The “area … normalized” value [7] was −1.305, the “area … normalized” value [8] was 3.608 and the “area … normalized” value [9] was 0. The “area … normalized” value [10] was −0.6903, the “area … normalized” value [11] was 0.1386 and the “area … normalized” value [12] was 0.4168. The “area … normalized” value [13] was 1.685, the “area … normalized” value [14] was −1.314 and the “area … normalized” value [15] was 2.497. The “area … normalized” value [16] was −2.624, the “area … normalized” value [17] was −0.2044 and the “area … normalized” value [18] was 1.212. The “area … normalized” value [19] was 0.09958, the “area … normalized” value [20] was −2.56 and the “area … normalized” value [21] was 1.661. The “area … normalized” value [22] was 1.29, the “area … normalized” value [23] was 0.5099 and the “area … normalized” value [24] was −0.2961. For the same molecule, the “area … normalized” value [25] was 3.789, the “area … normalized” value [26] was −1.419 and the “area … normalized” value [27] was −0.4228. The “area … normalized” value [28] was 1.325, the “area … normalized” value [29] was 1.301 and the “normalized viability AUC” value [30] was “negative”. The AUC value [31] was “high”.

With `C[C@@H]1O[C@@H](O[C@H]2C[C@@H](O)[C@]3(CO)[C@H]4[C@H](O)C[C@]5(C)[C@@H](C6=CC(=O)OC6)CC[C@]5(O)[C@@H]4CC[C@]3(O)C2)[C@H](O)[C@H](O)[C@H]1O` [Oubain, Ouabain] the “area … normalized” value [1] was −0.4351, the “area … normalized” value [2] was 0.3093 and the “area … normalized” value [3] was 4.783. For the same molecule, the “area … normalized” value [4] was −1.223, the “area … normalized” value [5] was −0.5183 and the “area … normalized” value [6] was −0.3665. The “area … normalized” value [7] was −0.9472, the “area … normalized” value [8] was 0.3874 and the “area … normalized” value [9] was 0.2365. The “area … normalized” value [10] was −0.2417, the “area … normalized” value [11] was 1.567 and the “area … normalized” value [12] was 0.9192. For the same molecule, the “area … normalized” value [13] was 0.1113, the “area … normalized” value [14] was −1.414 and the “area … normalized” value [15] was 2.229. For the same molecule, the “area … normalized” value [16] was −0.7374, the “area … normalized” value [17] was 0.9873 and the “area … normalized” value [18] was −0.4741. The “area … normalized” value [19] was 0.2009, the “area … normalized” value [20] was −2.03 and the “area … normalized” value [21] was 2.702. For the same molecule, the “area … normalized” value [22] was 0, the “area … normalized” value [23] was 1.054 and the “area … normalized” value [24] was −1.026. For the same molecule, the “area … normalized” value [25] was 5.038, the “area … normalized” value [26] was −0.3494 and the “area … normalized” value [27] was −0.6785. The “area … normalized” value [28] was 4.209, the “area … normalized” value [29] was −0.3889 and the “normalized viability AUC” value [30] was “negative”. For the same molecule, the AUC value [31] was “high”.
